Laboratory results from US11952387B2, “Bicyclic heteroaromatic ring derivative” (priority 2018, dated 2024).

The compounds below were run on HRV14 (assay: Inhibitory activity against human rhinovirus infection and replication (quantitative real-time PCR)). Conditions: Human rhinovirus sp., MRC5; 100 nmol/L test compound; MRC-5 cells infected with HRV14 at MOI=0.2; 48 hours; viral load normalized to 18s rRNA; read-out: Percent Inhibition.
Type: cell-based
In short: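 Near-confluent MRC-5 cells were pretreated 30 min with compound at 100 or 1000 nmol/L, then infected with HRV14 (MOI 0.2) in compound-containing medium (2% FBS, 30 mmol/L MgCl2) and cultured 48 h at 35 °C. HRV14 RNA by qRT-PCR, normalized to 18S rRNA; percent inhibition versus untreated infected cells.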
For `COc1ncc(-c2c(C)nc3sc(C(C)(C)C(=O)O)nn23)cc1S(=O)(=O)N[C@H]1CC[C@@H](O)CC1` [Example 18-2], the inhibition at 0.1 µM was ≤ 50%. In the case of `COc1ccc(-c2c(C)nc3sc(C(C)(C)C(=O)N(C)C)nn23)cc1S(=O)(=O)N[C@H]1CC[C@@H](O)CC1` [Example 19], the inhibition at 0.1 µM is reported as > 80%. In the case of `COc1ccc(-c2c(C)nc3sc(C(C)(C)CO)nn23)cc1S(=O)(=O)N[C@H]1CC[C@@H](O)CC1` [Example 20-1], the inhibition at 0.1 µM is reported as > 80%. `COc1ncc(-c2c(C)nc3sc(C(C)(C)CO)nn23)cc1S(=O)(=O)N[C@H]1CC[C@@H](O)CC1` [Example 20-2] was tested, and the inhibition at 0.1 µM was ≤ 50%. In the case of `COc1ccc(-c2c(C)nc3sc(C(C)(C)O)cn23)cc1S(=O)(=O)N[C@H]1CC[C@@H](O)CC1` [Example 21-1], the inhibition at 0.1 µM is reported as ≤ 50%. Work on `COc1ccc(-c2c(C)nc3sc(C(C)(C)O)nn23)cc1S(=O)(=O)NC[C@H]1C[C@@H](O)C1` [Example 21-3] yielded an inhibition at 0.1 µM of 50 to 80%. For `COc1ccc(-c2c(C)nc3sc(C(C)(C)O)nn23)cc1S(=O)(=O)NCC1COC1` [Example 21-4], the inhibition at 0.1 µM was 50 to 80%. `COc1ccc(-c2c(C)nc3sc(C(C)(C)O)nn23)cc1S(=O)(=O)N[C@H]1C[C@H](CO)C1` [Example 21-5] was tested, and the inhibition at 0.1 µM was ≤ 50%. In the case of `COc1ccc(-c2c(C)nc3sc(C(C)(C)O)nn23)cc1S(=O)(=O)NC[C@H]1C[C@H](O)C1` [Example 21-6], the inhibition at 0.1 µM is reported as ≤ 50%. Compound `COc1ccc(-c2c(C)nc3sc(C(C)(C)O)nn23)cc1S(=O)(=O)NCC(C)(C)O` [Example 21-7] has an inhibition at 0.1 µM of 50 to 80%. With `COc1ccc(-c2c(C)nc3sc(C(C)(C)O)nn23)cc1S(=O)(=O)N[C@H]1C[C@H](O)C1` [Example 21-8] the inhibition at 0.1 µM was 50 to 80%. For `COc1ccc(-c2c(C)nc3sc(C(C)(C)O)nn23)cc1S(=O)(=O)N[C@H]1C[C@@H](CO)C1` [Example 21-9], the inhibition at 0.1 µM was ≤ 50%. With `COc1ccc(-c2c(C)nc3sc(C(C)(C)O)nn23)cc1S(=O)(=O)N[C@H]1C[C@@H](O)C1` [Example 21-10] the inhibition at 0.1 µM was ≤ 50%. In the case of `COc1ccc(-c2c(C)nc3sc(C(C)(C)O)nn23)cc1S(=O)(=O)NC12CCC(O)(CC1)CC2` [Example 21-11], the inhibition at 0.1 µM is reported as ≤ 50%. Compound `COc1ccc(-c2c(C)nc3sc(C(C)(C)O)nn23)cc1S(=O)(=O)N[C@H]1CC[C@](C)(O)CC1` [Example 21-12] has an inhibition at 0.1 µM of 50 to 80%. In the case of `COc1ccc(-c2c(C)nc3sc(C(C)(C)O)nn23)cc1S(=O)(=O)N[C@H]1CC[C@@](C)(O)CC1` [Example 21-13], the inhibition at 0.1 µM is reported as ≤ 50%. For `COc1ccc(-c2c(C)nc3sc(C(C)(C)O)nn23)cc1S(=O)(=O)NC1(C)CCC(O)CC1` (stereo not drawn) [Example 21-14], the inhibition at 0.1 µM was > 80%. `COc1ccc(-c2c(C)nc3sc(C(C)(C)O)nn23)cc1S(=O)(=O)NC1(CO)CC(F)(F)C1` [Example 21-15] was tested, and the inhibition at 0.1 µM was > 80%. With `COc1ccc(-c2c(C)nc3sc(C(C)(C)O)nn23)cc1S(=O)(=O)NCC(O)C(F)(F)F` (stereo not drawn) [Example 21-16] the inhibition at 0.1 µM was 50 to 80%. `COc1ccc(-c2c(C)nc3sc(C(C)(C)O)cn23)cc1S(=O)(=O)Nc1ccc(O)cc1` [Example 21-18] showed an inhibition at 0.1 µM of 50 to 80%. For `COc1ccc(-c2c(C)nc3sc(C(C)(C)O)cn23)cc1S(=O)(=O)Nc1ccc(F)cc1` [Example 21-19], the inhibition at 0.1 µM was 50 to 80%. In the case of `COc1ccc(-c2c(C)nc3sc(C(C)(C)O)nn23)cc1S(=O)(=O)Nc1ccc(C#N)cc1` [Example 21-20], the inhibition at 0.1 µM is reported as ≤ 50%. For `COc1ccc(-c2c(C)nc3sc(C4(O)CC4)cn23)cc1S(=O)(=O)N[C@H]1CC[C@@H](O)CC1` [Example 22], the inhibition at 0.1 µM was ≤ 50%. For `COc1ccc(-c2c(C)nc3sc(C(C)(C)O)nn23)cc1S(=O)(=O)NC1(C(C)(C)O)CC1` [Example 23], the inhibition at 0.1 µM was > 80%. In the case of `COc1ccc(-c2c(C)nc3sc(C(C)(C)O)cn23)cc1S(=O)(=O)N(C)[C@H]1CC[C@@H](O)CC1` [Example 24], the inhibition at 0.1 µM is reported as ≤ 50%. In the case of `C=C(C)c1cn2c(-c3ccc(OC)c(S(=O)(=O)N[C@H]4CC[C@@H](O)CC4)c3)c(C)nc2s1` [Example 25], the inhibition at 0.1 µM is reported as 50 to 80%. `COc1ccc(-c2c(C)nc3sc(C(C)(C)O)nn23)cc1S(=O)(=O)Cc1ccc(N)cc1` [Example 26] was tested, and the inhibition at 0.1 µM was ≤ 50%.
